# Data published in patent publication US20120093735A1, “COMPLEX COMPOUND AND MRI PROBE MADE OF SAME” (priority 2005, published 2012).
# Tests used:
# Type in all cases: physicochemical
# [1] = Relaxivity R1 of KMR-K001 depending on abundance of ions; conditions: KCl vs CaCl2, MgCl2, FeCl3; 0.05M Tris/HCl pH 7.4, 0.47 T, 40° C.
# Procedure: Solutions of KMR-K001 (1.0 mM) and KCl (0, 0.01, 0.1, 0.3, 0.6, 0.9, 1.2, 1.5, 1.8, 2.4, 3.0, 10, 30. 100 mM) in 0.05M Tris/HCl buffer, pH 7.4, were prepared in an amount of 2 mL, respectively. Each solution was measured for the longitudinal relaxation time T1 three times using NMS 120 Minispec NMR ANALYZER (0.47 T, 40° C., IR pulse). Then each solution was sequentially diluted to attain KMR-K001 concentrations of 0.9 mM and 0.8 mM, respectively, and the longitudinal relaxation time T1 was measured therefor. By taking [KMR-K001] along the abscissa and taking 1/T1 along the ordinate, relaxivity R1 was determined from the slope. Measurements of the longitudinal relaxation time were carried out in the same manner using CaCl2, MgCl2 or FeCl3.
# [2] = Relaxivity R1 of KMR-K001 in the presence of zinc ion; conditions: 0.05M Tris/HCl pH 7.4, 0.47 T, 40° C.; gadolinium ion liberated by ligand exchange
# [3] = Relaxivity R1 of KMR-Ca001 depending on abundance of ions; conditions: CaCl2 vs NaCl, MgCl2, FeCl3; 0.05M Tris/HCl pH 7.4, 0.47 T, 40° C.
# Procedure: (§1) Solutions of KMR-Ca001 (0.6 mM) and CaCl2 (0, 0.01, 0.1, 0.2, 0.3, 0.4, 0.5, 0.6, 0.7, 0.8, 1.0, 1.2, 3.0, 10, 30, 100mM) in 0.05M Tris/HCl buffer, pH 7.4, were prepared in an amount of 2 mL, respectively. Each solution was measured for the longitudinal relaxation time T1 three times using NMS 120 Minispec NMR ANALYZER (0.47 T, 40° C., IR pulse). Then each solution was sequentially diluted to attain […] concentrations of 0.45 mM and 0.35 mM, respectively, and the longitudinal relaxation time T1 was measured therefor in the same manner. By taking [KMR-Ca001] along the abscissa and taking 1/T1 along the ordinate, relaxivity R1 was determined from the slope. Measurements of the longitudinal relaxation time were carried out in the same manner using NaCl, MgCl2 or FeCl3.
# [4] = Relaxivity R1 of KMR-Ca001 in the presence of iron ion; conditions: 0.05M Tris/HCl pH 7.4, 0.47 T, 40° C.; iron ion per se has relaxing capability
# Procedure: as §1
# [5] = T1-weighted images of KMR-Ca001 solutions (1.5T MR scanner); conditions: 0.05M Tris/HCl pH 7.4, 1.5T
# Procedure: Water, solutions containing KMR-Ca001 alone at concentrations of 0.1, 0.3, 0.6, 1.0 and 3.0 mM, respectively, and solutions containing 0.3 mM KMR-Ca001 and CaCl2 at concentrations of 0.5, 0.6, 0.8, 1.0, 10.0, 20.0, 50.0, 80.0 mM, respectively, in 0.05M Tris/HCl buffer, pH 7.4, were prepared, and placed in glass tubes, respectively. These glass tubes were stood on agar contained in a Tupperware, and T1-weighted images were obtained by T1-weighted GRE using a 1.5T MR scanner (Signa Horzon LX, produced by GE Yokogawa Medical Systems).
# As a result, as KMR-Ca001 increased, the T1-weighted images became whiter, so that it was confirmed that KMR-Ca001 functioned and effective as an MRI contrast agent. The T1-weighted images of the solutions containing 0.3 mM KMR-Ca001 to which calcium ion was added, as the calcium ion increases, coordination of water to gadolinium ion was more inhibited, so that T1-weighted image became darker. By this, it was confirmed that KMR-Ca001 is an MRI contrast agent which responds to calcium ion concentration.
Substance,ion selectivity of relaxivity R1 response [1],change of relaxivity in the presence of zinc ion [2],ion selectivity of relaxivity R1 response [3],change of relaxivity in the presence of iron ion [4],T1-weighted image change with increasing calcium ion ([5]; 0.3 mM KMR-Ca001 with CaCl2 0.5-80.0 mM),T1-weighted image change with increasing probe concentration ([5]; KMR-Ca001 alone 0.1-3.0 mM)
[bis-(2-{[(2-carboxy-(benzo-15-crown-5)-ethylcarbamoyl)-methyl]-carboxymethyl-amino}-ethyl)-amino]-acetic acid gadolinium complex [KMR-K001],selectively responds to potassium ion,the relaxivity is sharply increased,–,–,–,–
{bis-[2-({[3-(bis-carboxymethyl-amino)-4-methoxy-phenylcarbamoyl]-methyl}-carboxymethyl-amino)-ethyl]-amino}-acetic acid gadolinium complex [KMR-Ca001],–,–,selectively responds to calcium ion,the relaxivity is sharply increased,became darker,became whiter
